One data set has as its target T1, PTP1B1–400 (Homo sapiens, UniProt P18031).
T1 construct: we performed an enzyme kinetic assay for PTP1B1–400
T1 sequence (P18031 1-400): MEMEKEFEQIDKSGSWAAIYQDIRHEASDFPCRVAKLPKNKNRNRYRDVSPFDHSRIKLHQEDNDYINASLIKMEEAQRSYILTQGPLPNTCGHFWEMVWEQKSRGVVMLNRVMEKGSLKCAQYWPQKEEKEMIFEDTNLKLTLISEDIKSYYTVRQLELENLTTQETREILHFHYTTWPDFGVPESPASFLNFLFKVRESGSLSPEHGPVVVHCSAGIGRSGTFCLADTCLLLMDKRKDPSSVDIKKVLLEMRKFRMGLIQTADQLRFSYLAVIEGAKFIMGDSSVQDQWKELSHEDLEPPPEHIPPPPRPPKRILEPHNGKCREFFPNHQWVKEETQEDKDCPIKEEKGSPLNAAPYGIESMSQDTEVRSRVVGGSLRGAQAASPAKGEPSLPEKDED
The data set can be described thus: Enzyme kinetic assay for PTP1B1–400 (pNPP substrate). Type of data set: biochemical. An excerpt:
As pointed out in this paper’s introduction, we have reported the PTP1B inhibitory activity of FC-114 and FC-122 [53]. […] Nevertheless, the inhibition type of FC-122 remained unknown to date. Therefore, we performed an enzyme kinetic assay for PTP1B1–400 [59, 60, 61] using p-nitrophenyl phosphate (pNPP) as substrate at different concentrations as well as the inhibitor. Figure 2C depicts the double reciprocal plot of Lineweaver-Burk, showing the effect of FC-122 on the PTP1B activity.
The kinetic studies for PTP1B and α-glucosidase were carried out under the same conditions described in the references.

Another data set deals with female Wistar rats. Nature of the data set: Acute oral toxicity (OECD guideline 425). In kind it is in vivo. The settings on record: for toxic effects at the macroscopic level (necropsy images): 175, 550, and 2000 mg/kg; for AOT (acute oral toxicity): female Wistar rats. As for the experimental part: They were kept in standard polypropylene boxes under controlled temperature (24 ± 4 °C) on a 12 h light/dark cycle and provided conventional food (formula 5001, Rat Chow) and purified water ad libitum. […] At the end of the experiment, the animals were taken to the humanitarian endpoint by the intraperitoneal (ip) administration of 75 mg/kg of sodium pentobarbital to perform a necropsy in the bioterium of FESC, UNAM. During the necropsy, blood serum was extracted to quantify glucose, triacylglycerides, cholesterol, and insulin. The study was conducted based on the guidelines of the Declaration of Helsinki and approved by the Institutional Review Board: Internal Committee for the Care and Use of Experimentation Animals (CICUAE, according to the initials in Spanish, C23_02 on March 2023) of the FESC UNAM (Mexico). It complies with the Mexican norm for this matter (NOM-062-ZOO-1999, Technical Specifications for the Production, Care, and Use of Laboratory Animals, SAGARPA), as well as the Guide for the Care and Use of Laboratory Animals of the National Research Council and National Institutes of Health (NIH Publications No. 8023, revised 1978).
The female Wistar rats (n = 3) were used to obtain the AOT based on the procedures of Guide Number 425 of the Organization for Economic Cooperation and Development (OECD). The rats were closely monitored for 48 h after receiving oral doses of FC-114 or FC-122. Rat 1 received 175 mg/kg, rat 2 received 550 mg/kg, and rat 3 received 2000 mg/kg. They were then observed for 14 days until a necropsy to check for any toxic effects.

The subject of data set [1] is streptozotocin-induced diabetic rats. The data set can be described thus: Serum determinations (insulin, cholesterol) in streptozotocin-induced diabetic rats. In kind it is in vivo, Wistar rat. As to conditions: 14 days, FC-114 51.3 mg/kg/day. As for the experimental part:
To obtain serum from each rat under anesthesia, a 10 mL blood sample was taken via cardiac puncture of the exposed heart. After being left at room temperature for 10 min, the blood samples were centrifuged at 2500 rpm (1200× g) for 10 min to obtain the serum. The resulting serum was then frozen at −70 °C until needed. Prior to usage, the serum samples were thawed at room temperature.
The diabetic animals in group 2 (untreated) were given 4% v/v aqueous EtOH solution (vehicle of treatments) in a volume of 6.5 mL/kg body weight. The other groups (3–7) received different treatments for 14 days (weeks 5 to 7). […] All of the treatments were at equimolar doses of PIO and adjusted to the weekly weight of each rat. […] The commercial PIO tablet (30 mg) was crushed in 7.5 mL of vehicle and given to each animal in 4.0 mg/mL of suspension. The FC-114 and FC-122 suspensions were created at 6.2 and 6.0 mg/mL, respectively. The commercial acarbose tablet (50 mg) was crushed in 7.5 mL of the vehicle and given to each animal in a suspension of 6.6 mg/mL. Each suspension was used within 2 days of its preparation, and the administration volume was near to 2.5 mL for each rat.
The blood determinations were carried out using different kits: glucose (1001191, Spinreact, Girona, Spain, 1045), TAG (41032, Spinreact, LIQ557), insulin (RAB09A-1EA-KC, Sigma, 11092020), total cholesterol (41020, Spinreact, LIQ384), and HDL cholesterol (1001095, Spinreact, H166). Mathematically, the c-LDL cholesterol was determined by subtracting the HDL fraction from the total cholesterol.

In a further data set the test system is PTP1B. The arrangement: method as in PMID 34299651. As to conditions: cited from earlier work.

Consider `Cc1ccc(-n2ncc3c2C(C)(C)[C@@H]2CC[C@]4(C)[C@H](C(=O)C=C5[C@@H]6C[C@@](C)(C(=O)O)CC[C@]6(C)CC[C@]54C)[C@@]2(C)C3)cc1` [FC-122], for which the “Inhibition type (PTP1B)” value at PTP1B1–400 (Lineweaver-Burk plot) is “uncompetitive”. For the same compound, on PTP1B1–400 (substrate pNPP), the affinity corresponds to a Ki of 440 nM. Further, in the data set with female Wistar rats, the “toxic effects at the macroscopic level (necropsy images)” value is “No toxic effects were observed” and the “AOT (acute oral toxicity)” value is “higher than 2000 mg/kg”. In the data set on female Wistar rats (dose 175 mg/kg oral), the “Toxic Effects” value was “None” and the “Weight Gain for 2 Weeks” value was 23.5 g. Also, in the data set with female Wistar rats (dose 550 mg/kg oral), the “Toxic Effects” value is “None” and the “Weight Gain for 2 Weeks” value is given as 25.2 g. In addition, in the data set on female Wistar rats (dose 2000 mg/kg oral), the “Toxic Effects” value was “None” and the “Weight Gain for 2 Weeks” value was found to be 26.4 g.

For `CC1(C)c2[nH]c3ccc(C(F)(F)F)cc3c2C[C@]2(C)[C@H]3C(=O)C=C4[C@@H]5C[C@@](C)(C(=O)O)CC[C@]5(C)CC[C@@]4(C)[C@]3(C)CC[C@@H]12` [FC-114], in the data set on female Wistar rats, the “toxic effects at the macroscopic level (necropsy images)” value was “No toxic effects were observed” and the “AOT (acute oral toxicity)” value is “higher than 2000 mg/kg”. In addition, in the data set on female Wistar rats (dose 175 mg/kg oral), the “Toxic Effects” value is listed as “None” and the “Weight Gain for 2 Weeks” value turned out to be 22.8 g. Moreover, in the data set on female Wistar rats (dose 550 mg/kg oral), the “Toxic Effects” value is given as “None” and the “Weight Gain for 2 Weeks” value is reported as 23.4 g. Further, in the data set on female Wistar rats (dose 2000 mg/kg oral), the “Toxic Effects” value is “None” and the “Weight Gain for 2 Weeks” value is listed as 21.5 g. In data set [1], the HDL levels result is listed as “without affecting”, the “calculated LDL cholesterol” value is on record as “decreased”, the serum insulin levels entry is on record as “dramatically increasing trend” and the serum total cholesterol entry is listed as “decreased”. In addition, in the data set with PTP1B, the “Inhibition type (PTP1B)” value was “non-competitive” and the Ki is 3.9 µM.

The record behind these values is article PMC10454726 (International Journal of Molecular Sciences, 2023).
